Results on 30 compounds are retold here after US7094895B2, “Tyrosyl derivatives and their use as P2X7 receptor modulators” (King Pharmaceuticals Research & Development, Inc., priority 2001, dated 2006).

The test system of one experiment is Adriamycin-resistant cells (HL-60).
Assay: not given
The note with it: KN62 2 μM (non-cytotoxic), Adriamycin-resistant HL-60 cells; cited from earlier work.
As for `CN([C@@H](Cc1ccc(OS(=O)(=O)c2cccc3cnccc23)cc1)C(=O)N1CCN(c2ccccc2)CC1)S(=O)(=O)c1cccc2cnccc12` [KN62, 1-N,0-(bis(1,5-isoquinolinesulfonyl)-N-methyl-L-tyrosyl)-4-phenylpiperazine], the “enhancement of VP-16 induced topoisomerase II-mediated DNA cleavable complex formation” value is on record as 2- to 4 fold.

A further experiment addresses T1, P2X7 receptor (Homo sapiens, UniProt Q99572).
T1 sequence (Q99572 1-595): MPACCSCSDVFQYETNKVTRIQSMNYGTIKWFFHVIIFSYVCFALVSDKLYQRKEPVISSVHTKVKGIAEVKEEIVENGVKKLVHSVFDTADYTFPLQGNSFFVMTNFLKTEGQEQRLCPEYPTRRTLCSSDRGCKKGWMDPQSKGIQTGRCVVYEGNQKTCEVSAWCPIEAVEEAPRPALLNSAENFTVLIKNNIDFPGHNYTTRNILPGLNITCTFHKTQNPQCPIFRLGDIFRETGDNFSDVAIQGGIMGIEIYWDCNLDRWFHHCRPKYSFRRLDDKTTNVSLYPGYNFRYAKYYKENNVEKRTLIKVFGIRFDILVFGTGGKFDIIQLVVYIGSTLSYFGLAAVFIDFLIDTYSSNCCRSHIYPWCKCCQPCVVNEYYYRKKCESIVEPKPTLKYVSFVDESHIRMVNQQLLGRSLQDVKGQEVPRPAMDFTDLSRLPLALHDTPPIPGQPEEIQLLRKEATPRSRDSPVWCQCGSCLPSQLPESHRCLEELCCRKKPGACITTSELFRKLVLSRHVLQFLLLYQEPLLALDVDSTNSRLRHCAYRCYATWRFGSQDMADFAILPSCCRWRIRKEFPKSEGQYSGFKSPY
In words: Inhibition of ATP-induced calcium influx in human monocytes (fura-2/AM). Format: cell-based. On the set-up: endogenous in cells; host or cells: human monocytes. To be noted: inhibiting calcium influx in human monocytes in the presence of 1 mM ATP; read-out: P2X7 Antagonist Activity IC50. Here is the method:
Table 1 illustrates the IC50 values for compounds toward inhibiting calcium influx in human monocytes in the presence of 1 mM ATP.
Ca^2+ measurements. Changes in Ca^2+ were measured with the fluorescent indicator fura-2/AM (Molecular Probes, Inc., Eugene, Oreg.) as described previously.^32 Briefly, cells were loaded with […] of fura-2/AM and incubated in a thermostat-controlled (37° C.) and magnetically stirred fluorometer cuvette (model LS50, Perkin-Elmer Ltd., Beaconsfield, UK). Intracellular Ca^2+ concentration was determined with the 340/380 excitation ratio at an emission wavelength of 500 nm. All experiments were repeated three times.
A word on the IC50: it is the concentration at which inhibition is half-maximal. Regarding “1-[(S)-N,O-bis-(isoquinolinesulfonyl)-N-methyl-tyrosyl]-4-(2,3-dimethylphenyl)-piperazine”, the IC50 was found to be 1120 nM. In the case of `CN([C@@H](Cc1ccc(OS(=O)(=O)c2cccnc2)cc1)C(=O)N1CCN(c2ccccc2)CC1)S(=O)(=O)c1cccnc1` [1-[(S)-N,O-bis-(3-pyridinesulfonyl)-N-methyl-tyrosyl]-4-phenyl-piperazine], the IC50 came out at 955 nM. Regarding `CN([C@@H](Cc1ccc(OS(=O)(=O)c2cccc3cnccc23)cc1)C(=O)N1CCN(c2ccccc2F)CC1)S(=O)(=O)c1cccc2cnccc12` [1-[(S)-N,O-bis-(isoquinolinesulfonyl)-N-methyl-tyrosyl]-4-(2-fluorophenyl)-piperazine]], the IC50 stood at 18.5 nM.

As for “1-[(S)-N,O-bis-(isoquinolinesulfonyl)-N-methyl-tyrosyl]-4-benzylpiperazine”, the concentration for half-maximal inhibition (IC50) was found to be 21 nM. Regarding “1-[(S)-N,O-bis-(isoquinolinesulfonyl)-N-methyl-tyrosyl]-4-(4-aminophenyl)-piperazine”, the IC50 is 101 nM. As to `CN([C@@H](Cc1ccc(OS(=O)(=O)c2cccc3cnccc23)cc1)C(=O)N1CCN(C(=O)c2ccc(F)cc2)CC1)S(=O)(=O)c1cccc2cnccc12` [1-[(S)-N,O-bis-(isoquinolinesulfonyl)-N-methyl-tyrosyl]-4-(4-fluorobenzoyl)-piperazine]], the IC50 amounted to 380 nM. As to `Cc1ccccc1N1CCN(C(=O)[C@H](Cc2ccc(OS(=O)(=O)c3cccnc3)cc2)N(C)S(=O)(=O)c2cccnc2)CC1` [1-[(S)-N,O-bis-(3-pyridinesulfonyl)-N-methyl-tyrosyl]-4-(2-methylphenyl)-piperazine], the IC50 was found to be 9120 nM.

For the compound `CN([C@@H](Cc1ccc(OS(=O)(=O)c2cccc3cnccc23)cc1)C(=O)N1CCN(c2ccccc2)CC1)S(=O)(=O)c1cccc2cnccc12` [KN62, 1-N,0-(bis(1,5-isoquinolinesulfonyl)-N-methyl-L-tyrosyl)-4-phenylpiperazine], the IC50 is 51 nM. Regarding “1-[(S)-N,O-bis-(isoquinolinesulfonyl)-N-methyl-tyrosyl]-4-(4-fluorophenyl)-piperazine”, the IC50 came to 1.33 nM. On to “1-[(S)-N,O-bis-(isoquinolinesulfonyl)-N-methyl-tyrosyl]-4-(p-tolyl)-piperazine”, for which the half-maximal inhibitory concentration (IC50) was found to be 13.5 nM. In the case of “1-[(S)-N,O-bis-(isoquinolinesulfonyl)-N-methyl-tyrosyl]-4-o-tolyl-piperazine”, the 50% inhibitory concentration (IC50) worked out at 15.1 nM.

“1-[(S)-N,O-bis-(isoquinolinesulfonyl)-N-methyl-tyrosyl]-4-(3-trifluoromethyl-phenyl)-piperazine”: the IC50 amounted to 31.1 nM. Take “1-[(S)-N,O-bis-(isoquinolinesulfonyl)-N-methyl-tyrosyl]-4-(pyrimidin-2-yl)-piperazine”: the 50% inhibitory concentration (IC50) is 79.8 nM. For “1-[(S)-N,O-bis-(isoquinolinesulfonyl)-N-methyl-tyrosyl]-4-benzylpiperidine”, the IC50 is 65.3 nM. As for “1-[(S)-N,O-bis-(isoquinolinesulfonyl)-N-methyl-tyrosyl]-4-(2-methoxy-phenyl)-piperazine”, the IC50 was 84.1 nM. On the same count and under the same terms, with `CN([C@@H](Cc1ccc(OS(=O)(=O)c2cccc3cnccc23)cc1)C(=O)N1CCN(Cc2ccc([N+](=O)[O-])cc2)CC1)S(=O)(=O)c1cccc2cnccc12` [1-[(S)-N,O-bis-(isoquinolinesulfonyl)-N-methyl-tyrosyl]-4-(4-nitrobenzyl)-piperazine]] the figure was 12.3 nM; with `CN([C@@H](Cc1ccc(OS(=O)(=O)c2cccc3cnccc23)cc1)C(=O)N1CCN(c2ccc(I)cc2)CC1)S(=O)(=O)c1cccc2cnccc12` [1-[(S)-N,O-bis-(isoquinolinesulfonyl)-N-methyl-tyrosyl]-4-(4-iodophenyl)-piperazine]], 176 nM. “1-[(S)-N,O-bis-(isoquinolinesulfonyl)-N-methyl-tyrosyl]-4-(3,4-dichloro-phenyl)-piperazine”: the IC50 was determined as 33.9 nM. Turning to “1-[(S)-N,O-bis-(isoquinolinesulfonyl)tyrosyl]-4-(4-fluorophenyl)-piperazine”, the IC50 turned out to be 6.02 nM. As to “1-[(S)-N,O-bis-(isoquinolinesulfonyl)-N-methyl-tyrosyl]-4-(4-methoxy-phenyl)-piperazine”, the IC50 came out at 132 nM. Turning to “1-[(S)-N,O-bis-(isoquinolinesulfonyl)-N-methyl-tyrosyl]-4-phenethyl-piperazine”, the IC50 came to 600 nM. The same measure, in the same setting: with “1-[(S)-N,O-bis-(isoquinolinesulfonyl)-N-methyl-tyrosyl]-4-(3-chlorophenyl)-piperazine” the figure was 14.1 nM. With “1-[(S)-N,O-bis-(isoquinolinesulfonyl)-N-methyl-tyrosyl]-4-(4-nitrophenyl)-piperazine”, the IC50 came to 5.76 nM. `CN([C@@H](Cc1ccc(OS(=O)(=O)c2cccc3cnccc23)cc1)C(=O)N1CCN(c2ccc(C#N)cc2)CC1)S(=O)(=O)c1cccc2cnccc12` [1-[(S)-N,O-bis-(isoquinolinesulfonyl)-N-methyl-tyrosyl]-4-(4-cyanophenyl)-piperazine]]: the concentration for half-maximal inhibition (IC50) turned out to be 97.7 nM. On the same count and under the same terms, with “1-[(S)-N,O-bis-(isoquinolinesulfonyl)-N-methyl-tyrosyl]-4-(2-chlorophenyl)-piperazine” the figure was 15.8 nM; with “1-[(S)-N,O-bis-(isoquinolinesulfonyl)-N-methyl-tyrosyl]-4-(pyridin-2-yl)-piperazine”, 170 nM; with `CN([C@@H](Cc1ccc(OS(=O)(=O)c2cccc3cnccc23)cc1)C(=O)N1CCN(c2ccc(Cl)cc2)CC1)S(=O)(=O)c1cccc2cnccc12` [1-[(S)-N,O-bis-(isoquinolinesulfonyl)-N-methyl-tyrosyl]-4-(4-chlorophenyl)-piperazine]], 105 nM. Regarding `CC(=O)c1ccc(N2CCN(C(=O)[C@H](Cc3ccc(OS(=O)(=O)c4cccc5cnccc45)cc3)N(C)S(=O)(=O)c3cccc4cnccc34)CC2)cc1` [1-[(S)-N,O-bis-(isoquinolinesulfonyl)-N-methyl-tyrosyl]-4-(4-acetylphenyl)-piperazine]], the IC50 turned out to be 70.8 nM.

Take `CN([C@@H](Cc1ccc(OS(=O)(=O)c2cccc3cnccc23)cc1)C(=O)N1CCN(Cc2ccc(F)cc2)CC1)S(=O)(=O)c1cccc2cnccc12` [1-[(S)-N,O-bis-(isoquinolinesulfonyl)-N-methyl-tyrosyl]-4-(4-fluorobenzyl)-piperazine]]: the IC50 worked out at 5.8 nM. For the compound “1-[(S)-N,O-bis-(isoquinolinesulfonyl)tyrosyl]-4-(o-tolyl)-piperazine”, the IC50 came to 28.8 nM.

The target of a further experiment is T1, P2X7 receptor.
Assay: not given
The note with it: at the concentration of 500 nM; cited from earlier work.
Regarding `CN([C@@H](Cc1ccc(OS(=O)(=O)c2cccc3cnccc23)cc1)C(=O)N1CCN(c2ccccc2)CC1)S(=O)(=O)c1cccc2cnccc12` [KN62, 1-N,0-(bis(1,5-isoquinolinesulfonyl)-N-methyl-L-tyrosyl)-4-phenylpiperazine], the “inhibition of the P2X7 receptor” value is reported as “complete inhibition”.
